The values below come from patent US20260327246A1, “FUSED RING KRAS INHIBITORS FOR TREATING DISEASE” (BLOSSOMHILL THERAPEUTICS, INC., priority 2023, published 2026).

One test deals with SW620 (KRAS G12V). Put plainly: Cell Proliferation Assay (CellTiter-Glo 2.0), SW620. It is filed as cell-based. Conditions: Homo sapiens, SW-620; SW620 (KRAS G12V) cells; 72 hours at 37° C., 5% CO2; read-out: Anti-proliferation IC50, SW620 (KRAS G12V). As to the method: (§1) Two thousand KRAS mutant cells per well are seeded in 384-well white plate and then treated with indicated compounds for 72 hours at 37° C. and 5% CO2. Cell proliferation is measured using CellTiter-Glo 2.0 luciferase-based ATP detection assay (Promega, Madison, WI) following the manufacturer's protocol. IC50 values are determined using Prism software (GraphPad Software, San Diego, CA).
For orientation: Cellular ATP, detected with luciferase, serves as a proxy for viable cell number.

A further test deals with GP2D (KRAS G12D). Put plainly: Cell Proliferation Assay (CellTiter-Glo 2.0), GP2D. It is filed as cell-based. Conditions: GP2D (KRAS G12D) cells; 72 hours at 37° C., 5% CO2; read-out: Anti-proliferation IC50, GP2D (KRAS G12D). As for the experimental part: as §1

For the molecule `CCc1c(F)ccc2cc(O)cc(-c3nc4c5c(nc(OC[C@@]67CCCN6C[C@H](F)C7)nc5c3F)N3CCOCC[C@H]3CC4)c12` [compound 6, 5-ethyl-6-fluoro-4-[(8aR)-4-fluoro-2-{[(2R,7aS)-2-fluorotetrahydro-1H-pyrrolizin-7a(5H)-yl]methoxy}-8,8a,9,10,12,13-hexahydro-7H-11-oxa-1,3,6,13a-tetraazanaphtho[1,8-ab]heptalen-5-yl]naphthalen-2-ol], the values for the IC50 in the test on SW620 (KRAS G12V) and with GP2D (KRAS G12D) were 0.026 µM and 0.021 µM, respectively.
In the case of `C#Cc1c(F)ccc2cc(O)cc(-c3nc4c5c(nc(OC[C@@]67CCCN6C[C@H](F)C7)nc5c3F)N3CCOCC[C@@H]3CC4)c12` [compound 25, 5-ethynyl-6-fluoro-4-[(8aS)-4-fluoro-2-{[(2R,7aS)-2-fluorotetrahydro-1H-pyrrolizin-7a(5H)-yl]methoxy}-8,8a,9,10,12,13-hexahydro-7H-11-oxa-1,3,6,13a-tetraazanaphtho[1,8-ab]heptalen-5-yl]naphthalen-2-ol], the IC50 with SW620 (KRAS G12V) was 0.638 µM; in the test on GP2D (KRAS G12D) it was 0.276 µM.
As for `CCc1c(F)ccc2cc(O)cc(-c3nc4c5c(nc(OC[C@@]67CCCN6C[C@H](F)C7)nc5c3F)N3CCCCCC3CC4)c12` (stereo partly drawn) [compound 23, 5-ethyl-6-fluoro-4-(4-fluoro-2-{[(2R,7aS)-2-fluorotetrahydro-1H-pyrrolizin-7a(5H)-yl]methoxy}-7,8,8a,9,10,11,12,13-octahydro-1,3,6,13a-tetraazanaphtho[1,8-ab]heptalen-5-yl)naphthalen-2-ol], the IC50 was found to be 1.45 µM with SW620 (KRAS G12V) and 0.172 µM with GP2D (KRAS G12D).
Taken in the same sequence, the figures for `C#Cc1c(F)ccc2cc(O)cc(-c3nc4c5c(nc(OC[C@@]67CCCN6C[C@H](F)C7)nc5c3F)N3CCCC[C@H]3CC4)c12` [compound 20, 5-ethynyl-6-fluoro-4-[(8aS)-4-fluoro-2-{[(2R,7aS)-2-fluorotetrahydro-1H-pyrrolizin-7a(5H)-yl]methoxy}-8,8a,9,10,11,12-hexahydro-7H-1,3,6,12a-tetraazabenzo[4,5]cyclohepta[1,2,3-de]naphthalen-5-yl]naphthalen-2-ol] were 0.047 µM and 0.01 µM.
On the same counts, the results for `CCc1c(F)ccc2cc(O)cc(-c3nc4c5c(nc(OC[C@@]67CCCN6C[C@H](F)C7)nc5c3F)N3CCCOC[C@H]3CC4)c12` [compound 3, 5-ethyl-6-fluoro-4-[(8aR)-4-fluoro-2-{[(2R,7aS)-2-fluorotetrahydro-1H-pyrrolizin-7a(5H)-yl]methoxy}-7,8,8a,9,12,13-hexahydro-11H-10-oxa-1,3,6,13a-tetraazanaphtho[1,8-ab]heptalen-5-yl]naphthalen-2-ol] are 0.011 µM and 0.0063 µM.
In the case of `CCc1c(F)ccc2cc(O)cc(-c3nc4c5c(nc(OC[C@@]67CCCN6C[C@H](F)C7)nc5c3F)N3CCCOC[C@@H]3CC4)c12` [compound 4, 5-ethyl-6-fluoro-4-[(8aS)-4-fluoro-2-{[(2R,7aS)-2-fluorotetrahydro-1H-pyrrolizin-7a(5H)-yl]methoxy}-7,8,8a,9,12,13-hexahydro-11H-10-oxa-1,3,6,13a-tetraazanaphtho[1,8-ab]heptalen-5-yl]naphthalen-2-ol], the IC50 with SW620 (KRAS G12V) came to 0.304 µM; in the test with GP2D (KRAS G12D) it was 0.135 µM.
On the same counts, the results for `C=Cc1c(F)ccc2cc(O)cc(-c3nc4c5c(nc(OC[C@@]67CCCN6C[C@H](F)C7)nc5c3F)N3CCCCC3C(C#N)C4)c12` (stereo partly drawn) [compound 32, 5-(8-ethenyl-7-fluoro-3-hydroxynaphthalen-1-yl)-4-fluoro-2-{[(2R,7aS)-2-fluorotetrahydro-1H-pyrrolizin-7a(5H)-yl]methoxy}-8,8a,9,10,11,12-hexahydro-7H-1,3,6,12a-tetraazabenzo[4,5]cyclohepta[1,2,3-de]naphthalene-8-carbonitrile] are 2.04 µM and 0.461 µM.
`C#Cc1c(F)ccc2cc(O)cc(-c3nc4c5c(nc(OC[C@@]67CCCN6C[C@H](F)C7)nc5c3F)N3CCCCC3C(O)C4)c12` (stereo partly drawn) [compound 29, 5-(8-ethynyl-7-fluoro-3-hydroxynaphthalen-1-yl)-4-fluoro-2-{[(2R,7aS)-2-fluorotetrahydro-1H-pyrrolizin-7a(5H)-yl]methoxy}-8,8a,9,10,11,12-hexahydro-7H-1,3,6,12a-tetraazabenzo[4,5]cyclohepta[1,2,3-de]naphthalen-8-ol]: the IC50 in the test with SW620 (KRAS G12V) was 0.142 µM; in the test with GP2D (KRAS G12D) it was 0.014 µM.
`C#Cc1c(F)ccc2cc(O)cc(-c3nc4c5c(nc(OC[C@@]67CCCN6C[C@H](F)C7)nc5c3F)N3CCCOC[C@@H]3CC4)c12` [compound 2, 5-ethynyl-6-fluoro-4-[(8aS)-4-fluoro-2-{[(2R,7aS)-2-fluorotetrahydro-1H-pyrrolizin-7a(5H)-yl]methoxy}-7,8,8a,9,12,13-hexahydro-11H-10-oxa-1,3,6,13a-tetraazanaphtho[1,8-ab]heptalen-5-yl]naphthalen-2-ol]: the IC50 in the test with SW620 (KRAS G12V) worked out at 0.592 µM; in the test with GP2D (KRAS G12D), 0.085 µM.
As to `C#Cc1c(F)ccc2cc(O)cc(-c3nc4c5c(nc(OC[C@@]67CCCN6C[C@H](F)C7)nc5c3F)N3CCCOC[C@H]3CC4)c12` [compound 1, 5-ethynyl-6-fluoro-4-[(8aR)-4-fluoro-2-{[(2R,7aS)-2-fluorotetrahydro-1H-pyrrolizin-7a(5H)-yl]methoxy}-7,8,8a,9,12,13-hexahydro-11H-10-oxa-1,3,6,13a-tetraazanaphtho[1,8-ab]heptalen-5-yl]naphthalen-2-ol], the IC50 in the test on SW620 (KRAS G12V) is 0.0036 µM; with GP2D (KRAS G12D), 0.0011 µM.
Turning to `C#Cc1c(F)ccc2cc(O)cc(-c3nc4c5c(nc(OC[C@@]67CCCN6C[C@H](F)C7)nc5c3F)N3CCCCCC3CC4)c12` (stereo partly drawn) [compound 22], the IC50 amounted to 0.248 µM in the test with SW620 (KRAS G12V) and 0.032 µM in the test with GP2D (KRAS G12D).
On the same counts, the results for `C#Cc1c(F)ccc2cc(O)cc(-c3nc4c5c(nc(OC[C@@]67CCCN6C[C@H](F)C7)nc5c3F)N3CCCC[C@@H]3CC4)c12` [compound 27, 5-ethynyl-6-fluoro-4-[(8aR)-4-fluoro-2-{[(2R,7aS)-2-fluorotetrahydro-1H-pyrrolizin-7a(5H)-yl]methoxy}-8,8a,9,10,11,12-hexahydro-7H-1,3,6,12a-tetraazabenzo[4,5]cyclohepta[1,2,3-de]naphthalen-5-yl]naphthalen-2-ol] are 0.032 µM and 0.01 µM.
On the same counts, the results for `CCc1c(F)ccc2cc(O)cc(-c3nc4c5c(nc(OC[C@@]67CCCN6C[C@H](F)C7)nc5c3F)N3CCOCC[C@@H]3CC4)c12` [compound 26, 5-ethyl-6-fluoro-4-[(8aS)-4-fluoro-2-{[(2R,7aS)-2-fluorotetrahydro-1H-pyrrolizin-7a(5H)-yl]methoxy}-8,8a,9,10,12,13-hexahydro-7H-11-oxa-1,3,6,13a-tetraazanaphtho[1,8-ab]heptalen-5-yl]naphthalen-2-ol] are 0.557 µM and 0.321 µM.
In the case of `C#Cc1c(F)ccc2cc(O)cc(-c3nc4c5c(nc(OC[C@@]67CCCN6C[C@H](F)C7)nc5c3F)N3CCOC[C@H]3C4)c12` [compound 18, 5-ethynyl-6-fluoro-4-((R)-4-fluoro-2-(((2R,7aS)-2-fluorotetrahydro-1H-pyrrolizin-7a(5H)-yl)methoxy)-7a,8,10,11-tetrahydro-7H-[1,4]oxazino[4,3-g]pyrimido[4,5,6-de][1,6]naphthyridin-5-yl)naphthalen-2-ol], the IC50 in the test with SW620 (KRAS G12V) was found to be 0.13 µM; with GP2D (KRAS G12D), 0.123 µM.
Taken in the same sequence, the figures for `C#Cc1c(F)ccc2cc(O)cc(-c3nc4c5c(nc(OC[C@@]67CCCN6C[C@H](F)C7)nc5c3F)N3CCC[C@H]3COC4)c12` [compound 10, 5-ethynyl-6-fluoro-4-[(6aS)-1-fluoro-11-{[(2R,7aS)-2-fluorotetrahydro-1H-pyrrolizin-7a(5H)-yl]methoxy}-6a,7,8,9-tetrahydro-4H,6H-5-oxa-3,9a,10,12-tetraazacyclopenta[4,5]cycloocta[1,2,3-de]naphthalen-2-yl]naphthalen-2-ol] were 3 µM and 3 µM.
Taken in the same sequence, the figures for `C#Cc1c(F)ccc2cc(O)cc(-c3nc4c5c(nc(OC[C@@]67CCCN6C[C@H](F)C7)nc5c3F)N3CCCCC3C(C#N)C4)c12` (stereo partly drawn) [compound 28, 5-(8-ethynyl-7-fluoro-3-hydroxynaphthalen-1-yl)-4-fluoro-2-{[(2R,7aS)-2-fluorotetrahydro-1H-pyrrolizin-7a(5H)-yl]methoxy}-8,8a,9,10,11,12-hexahydro-7H-1,3,6,12a-tetraazabenzo[4,5]cyclohepta[1,2,3-de]naphthalene-8-carbonitrile] were 0.787 µM and 0.061 µM.
Turning to `CCc1c(F)ccc2cc(O)cc(-c3nc4c5c(nc(OC[C@@]67CCCN6C[C@H](F)C7)nc5c3F)N3CCCCC3C=C4)c12` (stereo partly drawn) [compound 31, 5-ethyl-6-fluoro-4-(4-fluoro-2-{[(2R,7aS)-2-fluorotetrahydro-1H-pyrrolizin-7a(5H)-yl]methoxy}-9,10,11,12-tetrahydro-8aH-1,3,6,12a-tetraazabenzo[4,5]cyclohepta[1,2,3-de]naphthalen-5-yl)naphthalen-2-ol], the IC50 is 0.591 µM in the test with SW620 (KRAS G12V) and 0.136 µM in the test with GP2D (KRAS G12D).
Taken in the same sequence, the figures for `C#Cc1c(F)ccc2cc(O)cc(-c3nc4c5c(nc(OC[C@@]67CCCN6C[C@H](F)C7)nc5c3F)N3CCCCC3C=C4)c12` (stereo partly drawn) [compound 21, 5-ethynyl-6-fluoro-4-(4-fluoro-2-{[(2R,7aS)-2-fluorotetrahydro-1H-pyrrolizin-7a(5H)-yl]methoxy}-9,10,11,12-tetrahydro-8aH-1,3,6,12a-tetraazabenzo[4,5]cyclohepta[1,2,3-de]naphthalen-5-yl)naphthalen-2-ol] were 0.02 µM and 0.0029 µM.
